Source: patent publication US6737407B1, “Treatment of obesity” (Metabolic Pharmaceuticals, Ltd., priority 1997, dated 2004)
Where no end group is shown, it is not given here.

What was measured:
[1] = system: Human Abdominal adipose Tissue; assay: Antilipogenic activity in human abdominal adipose tissue; format: cell-based; conditions: 0.1 μM peptide; BSA + insulin
Procedure: (§1) The rate of the incorporation of exogenous [C^14]-glucose into total lipid in adipose tissue was measured as the index of anti-lipogenic activity of hGH 177-191.
Adipose tissues were sliced into segments of approximately 200 mg each and then placed in Krebs-Ringer bicarbonate (KRB) buffer (pH 7.4) containing 2% defatted BSA, and glucose (0.1 mg/ml) and gassed with 95% O2-5% CO2 at 37° C. After 1 hr preincubation, the tissues were transferred to another 2 ml of fresh media containing [C^14]-glucose (final specific activity 0.05 μCi/μmol), […] of insulin (0.1 mU/ml) for a further 90 min incubation (conditions as above). Then the tissues were removed, washed thoroughly with KRB buffer and lipid was extracted with 5 ml of chlorofom/methanol (2:1, v/v) The extraction solution was washed with 2 ml of MeOH-H2O solution containing 0.1% MgCl2. A 2.5 ml aliquot of the washed extraction solution was taken and transferred to scintillation vials. The [C^14] radioactivity was measured with a liquid scintillation counter. The rates of total lipid synthesis were expressed as μmol [C^14]-glucose incorporated into lipid/g tissue/hr.
(§2) Tables 6 and 7 show the in vitro antilipogenic and lipolytic activity of hGH 177-191 and two representative analogues (Ref Nos. 9604 and 9605) on human adipose tissue.

[2] = system: isolated adipocytes of normal rats; assay: Diacylglycerol (DAG) release from isolated adipocytes; format: cell-based, rat
Procedure: FIG. 8 illustrates the in vitro effect of hGH 177-191 on the release of diacylglycerol from isolated adipocytes of normal rats over an incubation period of 40 min. Diacylglycerol was quantitated using radioenzymic assay and the results were expressed as % increase over the basal levels.
Diacylglycerol released from isolated adipose tissue or adipocytes was quantitated using a radioenzymic assay, employing E coli DAG kinase and defined mixed micelle conditions to solubilize DAG and allow its quantitative conversion to [^33p] phosphatidic acid in the presence of [^33p]-γ-ATP.

[3] = system: Human Subcutaneous adipose Tissue; assay: Lipolytic activity in human subcutaneous adipose tissue; format: cell-based; conditions: 0.5 μM peptide
Procedure: Adipose tissues were removed from animals and sliced into segments of approximately 200 mg each. Then the tissues were pre-incubated in 25 ml vials containing 2 ml of Krebs-Ringerbicarbonate (KRB) buffer, 4% defatted BSA and 5.5 mM glucose under an atmosphere of carbogen (95%O2/ 5%CO2) at 37° C. for 1 hour. Tissues were then transferred to another vials with fresh medium and the incubation was initiated by adding hGH 177-191 peptide or analogues into the vials. The mixtures were then incubated at 37° C. for 90 minutes. After incubation, the tissues wee removed and aliquots (200 μl) of samples withdrawn from the medium were assayed for the contents of glycerol or free fatty acid (FFA) either by the enzyme assay (glycerol kinase) or calorimetric (copper-dye) spectrometry. The NADH or color produced was then monitored by the absorption at 340 nm and 610 nm, respectively.
as §2

[4] = system: adipose tissues of the C57BL/6J (ob/ob) mice; assay: Ex vivo lipogenesis in adipose tissues of treated ob/ob mice ([C14]-glucose incorporated into lipid); set-up: species or system mouse
Excerpt: FIGS. 5A & 5B depict the ex vivo effect on lipogenesis in adipose tissues of the C57BL/6J (ob/ob) male mice (5A) and female mice (5B) after 18-day treatment with hGH 177-191. […] The differences between the hGH 177-191 treated and saline control groups were statistically significant.
The procedure for the isolation and measurement of intact epididymal fat pads was established in previous studies of epididymal growth of GH-deficient (lit/lit) mice. In the present study, white adipose tissues, either whole epididymal or parametrical fat pads, were excised with the identical techniques as previously described^22 from the mice immediately after sacrifice. The tissues were washed in cold physiological saline, blotted and weighed. For ex vivo lipogenic assays, the portions of adipose tissues without blood vessels were used.
as §1
Adipose tissues were sliced into segments of approximately 200 mg each and then placed in Krebs-Ringer bicarbonate (KRB) buffer (pH 7.4) containing 2% defatted BSA, and glucose (0.1 mg/ml) and gassed with 95% O2-5% CO2 at 37° C. […] The [C^14] radioactivity was measured with a liquid scintillation counter. The rates of total lipid synthesis were expressed as μmol [C^14]-glucose incorporated into lipid/g tissue/hr.

[5] = system: Zucker fatty (fa/fa) rats; assay: Chronic treatment of Zucker fatty rats: body weight gain and food consumption; format: in vivo, rat; conditions: throughout the treatment period
Procedure: Animals were given a daily intraperitoneal injection of either saline or the peptide (500 μg/kg body weight) (3A) or implanted intradermally with a slow-release tablet (500 μg/day/kg body weight) in the lower quadrant of the abdomen of the animals. The control group was implanted with a placebo tablet in the same manner. Each point represents the mean±SEM of 6 animals.
The treatment for the four groups of animals was as described in FIGS. 3A & 3B. Each point represents the mean±SEM of 6 animals.
The animals of the same age and same sex were randomly divided into two groups, housed 6 per cage and maintained on a normal 12-hr light/dark cycle at a constant room temperature of 25° C. in the animal house of the Department of Biochemistry and—Molecular Biology, Monash University, Clayton, Australia. Animals were fed ad libitum on pre-determined quantity of animal pellets (Clark King, Melboume, Australia) and allowed free access to water at all times. […] The body weight and food intake were monitored for the periods of time as indicated.
Cumulative weight gain and food consumption were determined at 3-day intervals by the measurements of body weight and uneaten food remaining in the cages. […]

LRIVQCRSVEGSCGF (cysteine pairing not given here) [Ref No. 9401]
14C incorporation [1]: 40 ± 3 Av DPM/mg tissue/hour | production/release of diacylglycerol (in words) [2]: activation of the production | Glycerol released [3]: 1000 ± 80 nmol/mg tissue/hour | tissue lipogenic activity ([C14]-glucose incorporated into lipid) ([4]; female ob/ob mice after 18-day treatment): 2.99±0.21 pmol/mg tissue/min | tissue lipogenic activity ([C14]-glucose incorporated into lipid) ([4]; male ob/ob mice after 18-day treatment): 2.33±0.21 pmol/mg tissue/min | food consumption (in words) [5]: unchanged
